The results in this text go back to BindingDB's records for doi:10.1021/acs.jnatprod.5b00062 (Albert-Ludwigs-University of Freiburg, 2015).

The structures appear in SMILES notation.

For test [1], the target named is Sodium/potassium-transporting ATPase subunit alpha-1 (Rattus norvegicus, UniProt P06685). Kind of test: Inhibition of Wistar rat kidney Na+,K+-ATPase alpha1 after 2 hrs.
In test [2] the target is Sarcoplasmic/endoplasmic reticulum calcium ATPase 1 (Rattus norvegicus, UniProt Q64578). Briefly: Inhibition of Wistar rat EDL muscle SERCA1a after 1 hr.
Sequence of Sarcoplasmic/endoplasmic reticulum calcium ATPase 1 (Q64578 whole entry): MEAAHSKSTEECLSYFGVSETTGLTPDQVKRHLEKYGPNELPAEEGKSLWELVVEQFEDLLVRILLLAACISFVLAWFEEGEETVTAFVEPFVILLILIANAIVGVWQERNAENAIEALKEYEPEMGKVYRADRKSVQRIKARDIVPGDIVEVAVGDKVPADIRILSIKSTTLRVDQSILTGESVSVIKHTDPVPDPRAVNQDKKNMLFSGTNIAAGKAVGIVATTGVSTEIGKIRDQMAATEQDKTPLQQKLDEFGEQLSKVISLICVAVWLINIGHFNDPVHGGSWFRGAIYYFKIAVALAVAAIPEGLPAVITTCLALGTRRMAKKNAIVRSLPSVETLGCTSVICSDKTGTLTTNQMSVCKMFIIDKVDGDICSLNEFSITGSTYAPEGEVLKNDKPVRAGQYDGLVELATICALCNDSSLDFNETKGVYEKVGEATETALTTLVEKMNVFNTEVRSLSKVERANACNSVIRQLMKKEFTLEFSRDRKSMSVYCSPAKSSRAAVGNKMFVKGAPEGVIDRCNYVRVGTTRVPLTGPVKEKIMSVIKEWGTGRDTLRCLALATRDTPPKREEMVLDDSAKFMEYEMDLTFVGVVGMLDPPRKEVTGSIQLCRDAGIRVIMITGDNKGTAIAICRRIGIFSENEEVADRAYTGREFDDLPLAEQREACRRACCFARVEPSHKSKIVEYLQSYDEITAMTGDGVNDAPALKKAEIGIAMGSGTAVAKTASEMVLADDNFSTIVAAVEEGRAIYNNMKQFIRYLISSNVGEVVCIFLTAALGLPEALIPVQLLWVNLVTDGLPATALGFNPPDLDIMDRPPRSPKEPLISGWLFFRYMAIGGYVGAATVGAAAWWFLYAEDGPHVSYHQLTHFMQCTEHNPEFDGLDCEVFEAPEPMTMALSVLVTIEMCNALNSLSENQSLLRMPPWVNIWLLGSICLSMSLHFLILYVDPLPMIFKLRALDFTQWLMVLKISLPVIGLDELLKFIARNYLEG

For orientation: IC50 means the point on the concentration scale where inhibition reaches its midpoint.

Take `CC[C@H](C)[C@H]1O[C@]2(CC[C@@H]1C)C[C@@H]1C[C@@H](C/C=C(\C)[C@@H](O[C@H]3C[C@H](OC)[C@@H](O[C@H]4C[C@H](OC)[C@@H](O)[C@H](C)O4)[C@H](C)O3)[C@@H](C)/C=C/C=C3\CO[C@@H]4[C@H](O)C(C)=C[C@@H](C(=O)O1)[C@]34O)O2` [ABAMECTIN]: the IC50 stood at 8.23 µM in test [1] and 16.9 µM in test [2].
